Results: PubChem BioAssay AID806 (SRMLSC, 2007)
Active and inactive are the calls of the source. No rule for the calls is given here.

Tested on: virus-infected cells, CPE inhibition, dose response
Test: PubChem AID 806
Conditions: for EC90: measured here: EC90 CPE inhibition; for CC50: measured here: cytotoxicity, cell viability IC50

Structure (SMILES)	EC50	EC90	CC50
CC1(C)Cc2c(c(N3CCOCC3)nc3sc4c(NN)ncnc4c23)CS1	> 60 µM (inactive)	> 60 µM	4.49 µM
COCCNC(=O)C(c1ccccc1C)N(CCOC)C(=O)Cn1nnc2ccccc21 (stereo unspecified)	> 60 µM (inactive)	> 60 µM	> 60 µM
CCSc1nnc(-c2ccc(Cl)cc2Cl)o1		> 60 µM	43.7 µM
CCCCSc1nnc(-c2ccc(C)cc2)o1	> 60 µM (inactive)	> 60 µM	> 60 µM
Cc1cc(NC(=O)CSc2nnc(CNc3ccc(F)cc3)n2C2CCCCC2)no1	61.8 µM (inactive)	> 60 µM	> 60 µM
O=C(NCc1cccs1)c1ccc(N2CCCCC2)nc1	> 60 µM (inactive)	> 60 µM	> 60 µM
Cc1ccc(-c2nnc3ccc(SCC(=O)NCc4ccco4)nn23)cc1	> 60 µM (inactive)	> 60 µM	> 60 µM
Cc1nn2c(C(F)(F)F)cc(-c3ccc(Cl)cc3)nc2c1C(=O)N1CCOCC1	> 60 µM (inactive)	> 60 µM	> 60 µM
Cc1nc2nc(-c3ccccc3)[nH]n2c(=O)c1Cc1ccccc1	> 60 µM (inactive)	> 60 µM	> 60 µM
COc1ccc(-c2nnc3ccc(SCC(=O)NCc4ccco4)nn23)cc1	> 60 µM (inactive)	> 60 µM	> 60 µM
NC(=O)c1c(NC(=O)CSc2nnc(Cc3ccccc3)n2Cc2ccco2)sc2c1CCC2	> 60 µM (inactive)	> 60 µM	> 60 µM
N#CCCN1CCn2c1nc1ccccc12	> 60 µM (inactive)	> 60 µM	> 60 µM
CCCCOc1ccc(C(=O)C(CN2CCOCC2)c2ccccc2)cc1 (stereo unspecified)	> 60 µM (inactive)	> 60 µM	> 60 µM
COc1ccc(Cl)cc1NC(=O)CS(=O)(=O)c1cccc2nsnc12	> 60 µM (inactive)	> 60 µM	> 60 µM
CCc1ccc(NC(=O)CCS(=O)(=O)c2cccc3nsnc23)cc1	> 60 µM (inactive)	> 60 µM	> 60 µM
COc1ccc(-c2nnc(SCC#N)o2)cc1	> 60 µM (inactive)	> 60 µM	19.7 µM
COc1ccccc1Cn1c(=O)c2ccccc2n2c(SCC(=O)N3CCCCC3)nnc12	> 60 µM (inactive)	> 60 µM	> 60 µM
Cc1ccc(S(=O)(=O)N2CCCCC2C(=O)N2CCN(C)CC2)cc1 (stereo unspecified)	> 60 µM (inactive)	> 60 µM	> 60 µM
COc1cccc(CNC(=O)CCS(=O)(=O)c2cccc3nsnc23)c1	> 60 µM (inactive)	> 60 µM	> 60 µM
Nc1c(C(=O)Nc2ccc(Cl)cc2)oc2ccccc12	> 60 µM (inactive)	> 60 µM	> 60 µM
COc1ccc(C2=NOC(C(=O)Nc3cc(C)nn3-c3ccccc3)C2)cc1OC (stereo unspecified)	> 60 µM (inactive)	> 60 µM	> 60 µM
O=C(c1cccs1)N1CCn2c1nc1ccccc12	> 60 µM (inactive)	> 60 µM	> 60 µM
Cc1ccc(/C=C/C(=O)c2c(C)cc(C)[nH]c2=O)cc1	> 60 µM (inactive)	> 60 µM	> 60 µM
COc1ccc(NC(=O)C2CC(=O)OC23CCCCC3)cc1 (stereo unspecified)	> 60 µM (inactive)	> 60 µM	> 60 µM
O=C(Nc1ccccc1-c1ccccc1)c1ccc(NC(=O)c2ccco2)cc1	> 60 µM (inactive)	> 60 µM	> 60 µM

Structure (SMILES)	EC50	EC90	CC50
CCOc1ccccc1NC(=O)c1ccc(NC(=O)c2ccco2)cc1	> 60 µM (inactive)	> 60 µM	> 60 µM
COc1cccc(C(=O)Nc2ccc(-c3nnc(-c4ccco4)o3)cc2)c1	> 60 µM (inactive)	> 60 µM	> 60 µM
CC(=O)Nc1ccc(Nc2ncnc3c2cnn3-c2cccc(C)c2)cc1	> 60 µM (inactive)	> 60 µM	> 60 µM
Cc1ccc2c(C)c(C(=O)Nc3cccnc3)oc2c1	> 60 µM (inactive)	> 60 µM	> 60 µM
COc1ccc(OC)c(-n2c(SCC(=O)NCc3ccco3)nnc2-c2c[nH]c3ccccc23)c1	> 60 µM (inactive)	> 60 µM	> 60 µM
Cc1c(C(=O)Nc2ccc(Cl)cn2)oc2ccccc12	> 60 µM (inactive)	> 60 µM	> 60 µM
CC1Cc2ccccc2N1C(=O)C1CCCCN1S(=O)(=O)c1ccccc1 (stereo unspecified)	> 60 µM (inactive)	> 60 µM	> 60 µM
Cc1ccc(NC(=O)C2=C(O)c3sccc3N(C)S2(=O)=O)cc1	> 60 µM (inactive)	> 60 µM	> 60 µM
O=C(Nc1ccc(Cl)cn1)c1cc2ccccc2o1	> 60 µM (inactive)	> 60 µM	> 60 µM
O=C1CC(C(=O)Nc2cccc3ccccc23)C2(CCCC2)O1 (stereo unspecified)	> 60 µM (inactive)	> 60 µM	> 60 µM
Cc1ccc(SCC(=O)Nc2ccc(-c3nnc(-c4ccco4)o3)cc2)cc1	> 60 µM (inactive)	> 60 µM	> 60 µM
CC(NC(=O)c1ccc(S(=O)(=O)N(C)C)cc1)c1ccccc1 (stereo unspecified)	> 60 µM (inactive)	> 60 µM	> 60 µM
COc1ccccc1NC(=O)c1oc2ccc(C)cc2c1C	> 60 µM (inactive)	> 60 µM	> 60 µM
CCC(Oc1ccccc1)C(=O)Nc1ccc(-c2nnc(-c3ccco3)o2)cc1 (stereo unspecified)	> 60 µM (inactive)	> 60 µM	> 60 µM
CC(C)CCNC(=O)C1CCCCN1S(=O)(=O)c1ccc(F)cc1 (stereo unspecified)	> 60 µM (inactive)	> 60 µM	> 60 µM
O=C(Cn1cnc2ccccc2c1=O)N(Cc1ccco1)c1ccc(O)cc1	> 60 µM (inactive)	> 60 µM	> 60 µM
N#CCCCSc1nnc(-c2ccccn2)o1	> 60 µM (inactive)	> 60 µM	> 60 µM
Cc1ccc(C)c(Cc2c(C)nc3c(C(=O)N4CCOCC4)cnn3c2C)c1	> 60 µM (inactive)	> 60 µM	> 60 µM
O=C(c1cc(-c2ccc(Cl)cc2)n(-c2cc(Cl)ccc2Cl)n1)N1CCOCC1	> 60 µM (inactive)	> 60 µM	> 60 µM
CCOc1ccccc1NC(=O)C1CCCCN1S(=O)(=O)c1ccc(F)cc1 (stereo unspecified)	> 60 µM (inactive)	> 60 µM	> 60 µM
O=C(CSc1ccc2nnc(-c3cccc(F)c3)n2n1)NCc1ccco1	> 60 µM (inactive)	> 60 µM	> 60 µM
Cn1c2ccccc2c(=O)c2c(=O)n(C3CCCCC3)c(-c3cccs3)nc21	59.3 µM (inactive)	> 60 µM	6.45 µM
CCc1c(C)nc2[nH]nc(-c3ccccc3C)n2c1=O	> 60 µM (inactive)	> 60 µM	> 60 µM
COc1ccccc1CNC(=O)c1ccc(S(=O)(=O)N2CCCC2)cc1	> 60 µM (inactive)	> 60 µM	> 60 µM
